From BindingDB's records for doi:10.1021/acs.jmedchem.6b01300 (Invivogen, 2016)

Tests used:
[1] = target: T1, Stimulator of interferon genes protein (Homo sapiens, UniProt Q86WV6); test: Activation of STING in human THP-1-Dual cells assessed as induction of type I IFNs by measuring stimulation of IRF pathway incubated for 48 hrs by luciferase reporter gene assay
[2] = target: T1, Stimulator of interferon genes protein; test: Activation of STING in human THP-1-Dual cells assessed as induction of type I IFNs by measuring stimulation of NF-kappaB pathway incubated for 48 hrs by luciferase reporter gene assay

T1 sequence (Q86WV6 whole entry): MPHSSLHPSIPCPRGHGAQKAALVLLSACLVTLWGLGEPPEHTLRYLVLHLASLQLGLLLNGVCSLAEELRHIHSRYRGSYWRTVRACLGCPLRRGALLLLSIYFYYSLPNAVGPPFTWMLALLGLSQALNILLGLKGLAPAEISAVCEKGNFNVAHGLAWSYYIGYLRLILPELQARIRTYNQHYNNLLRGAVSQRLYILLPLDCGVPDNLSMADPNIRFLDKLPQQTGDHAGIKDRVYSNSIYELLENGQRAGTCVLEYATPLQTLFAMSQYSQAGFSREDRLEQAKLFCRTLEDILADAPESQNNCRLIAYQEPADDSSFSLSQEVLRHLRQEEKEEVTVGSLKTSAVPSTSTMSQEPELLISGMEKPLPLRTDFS

EC50 [1]	EC50 [2]	Structure (SMILES)
1100 nM	15400 nM	Nc1ncnc2c1ncn2[C@@H]1O[C@@H]2COP(=O)(O)O[C@H]3[C@@H](F)[C@H](n4cnc5c(O)ncnc54)O[C@@H]3COP(=O)(O)O[C@H]2[C@H]1F
300 nM	1600 nM	Nc1ncnc2c1ncn2[C@@H]1O[C@@H]2COP(=O)(S)O[C@H]3[C@@H](F)[C@H](n4cnc5c(O)ncnc54)O[C@@H]3COP(=O)(S)O[C@H]2[C@H]1F (stereo partly specified)
1600 nM	7800 nM	Nc1ncnc2c1ncn2[C@@H]1O[C@@H]2COP(=O)(S)O[C@H]3[C@@H](O)[C@H](n4cnc5c(O)ncnc54)O[C@@H]3COP(=O)(S)O[C@H]2[C@H]1O (stereo partly specified)
–	62300 nM	Nc1ncnc2c1ncn2[C@H]1C[C@@H]2OP(=O)(O)OC[C@H]3O[C@@H](n4cnc5c(O)ncnc54)C[C@@H]3OP(=O)(O)OC[C@H]2O1
2300 nM	32300 nM	Nc1ncnc2c1ncn2[C@H]1C[C@@H]2OP(=O)(O)OC[C@H]3O[C@@H](n4cnc5c(O)ncnc54)[C@H](F)[C@@H]3OP(=O)(O)OC[C@H]2O1
1400 nM	25500 nM	Nc1ncnc2c1ncn2[C@@H]1O[C@@H]2COP(=O)(O)O[C@H]3C[C@H](n4cnc5c(O)ncnc54)O[C@@H]3COP(=O)(O)O[C@H]2[C@H]1F
